According to patent US8859599B2, “Androgen receptor modulating compounds, preparation and uses thereof” (priority 2009, dated 2014):

Columns and labels:
LNCaP cells [1] = experiment: Sulforhodamine B (SRB) in vitro chemosensitivity assay on LNCaP cells; type: cell-based; conditions: for GI50 / LC50: Homo sapiens, LNCaP, 144 h; for GI50: read-out: Growth inhibition (GI50), LNCaP cells, 144 h exposure; for LC50: read-out: cytocidal effects by 50% (LC50), LNCaP cells, 144 h exposure, n.r. = not reached; for cytocidal (cell killing) activity: LNCaP cells, 144 h exposure
Experimental: (§1) Sulforhodamine B (SRB) assay was used according to the method by Skehan et al. (JNCI, 1990). Briefly, cells were collected by trypsinization, counted and plated at a density of 5,000 cells/well in 96-well flat-bottomed microtiter plates (100 μl of cell suspension/well). In the chemosensitivity assay, experiments were run in octuplicate, and each experiment was repeated three times. The optical density (OD) of cells was determined at a wavelength of 490 nm by a colorimetric plate reader.
(§2) Growth inhibition and cytocidal effect of drugs were calculated according to the formula reported by Monks et al. (JNCI, 1991): [(ODtreated−ODzero)/(ODcontrol−ODzero)]×100%, when ODtreated is > to ODzero. If ODtreated is above ODzero, treatment has induced a cytostatic effect, whereas if ODtreated is below ODzero, cell killing has occurred. The ODzero depicts the cell number at the moment of drug addition, the ODcontrol reflects the cell number in untreated wells and the ODtreated reflects the cell number in treated wells on the day of the assay. TUNEL Assay
The authors examined the antitumour activity of the compounds for which the synthesis is described above, in the hormone-sensitive prostate cancer cell line LNCaP. (R)-Bicalutamide and the novel compounds were tested at the increasing concentrations of […]. The highest dose used was chosen on the basis of the clinically achievable peak plasma concentration reported in the literature for bicalutamide (Cockshott I D. Clin Pharmacokinet. 2004; 43 (13) 855-78).
After 144-hr exposure time, the cytotoxic effect of the molecules was calculated according to the method of Monks et al. (Monks A, et al., J. Nat. Cancer Inst. 1991; 83: 757-66).

DU145 = experiment: SRB cytotoxicity on DU145 cells; type: cell-based, human; conditions: DU145 cells (no AR), 144 h exposure
Experimental: (§3) Finally, compounds were also tested on HepG2 cells, originally isolated from a primary hepatoblastoma of a child, purchased from ATCC.
as §1, §2
(§4) The authors tested the antitumour activity of the compounds also on PC-3 and DU145 cancer cell lines, representative of hormone-refractory prostate cancer due to AR receptor absence.

PC-3 = experiment: SRB cytotoxicity on PC-3 cells; type: cell-based, human; conditions: PC-3 cells (no AR), 144 h exposure
Experimental: as §3, §1, §2, §4

LNCaP-AR cells = experiment: TUNEL assay of apoptotic cells in LNCaP-AR; type: cell-based, human; conditions: 20.0 μM; for Apoptotic cells (%): LNCaP-AR, 144-h exposure, TUNEL
LNCaP cells [2] = experiment: TUNEL assay of apoptotic cells in LNCaP; type: cell-based, human; conditions: 144-h exposure, 20.0 μM
Experimental: Cells were fixed in 1% paraformaldehyde in PBS on ice for 15 min, suspended in ice cold ethanol (70%) and stored overnight at −20° C. Cells were then washed twice in PBS and resuspended in PBS containing 0.1% Triton X-100 for 5 min at 4° C. Thereafter, samples were incubated in 50 μl of solution containing TdT and FITC-conjugated dUTP deoxynucleotides 1:1 (Roche Diagnostic GmbH, Mannheim, Germany) in a humidified atmosphere for 90 min at 37° C. in the dark, washed in PBS, counterstained with propidium iodide (2.5 μg/ml, MP Biomedicals, Verona, Italy) and RNAse (10 Kunits/ml, Sigma Aldrich, Milan, Italy) for 30 min at 4° C. in the dark and analyzed by flow cytometry.
After the end of drug exposures, medium was removed and cells were detached from the flasks by trypsin treatment, washed twice with PBS and stained according to the different methods specified below. Flow cytometric analysis was performed using a FACS Canto flow cytometer (Becton Dickinson, San Diego, Calif.). Data acquisition and analysis were performed using FACSDiva software (Becton Dickinson). Samples were run in triplicate and 10,000 events were collected for each replica. Data were the average of three experiments, with errors under 5%.
The cells, before TUNEL assay, were continuously exposed to the anti-androgen compounds for 144 hours at the concentration of 20.0 μM.

[3] = tested on: normal stem cells derived from human peripheral blood stem cells; experiment: Colony-forming cell assay (GM-CFU); type: cell-based; conditions: highest concentration tested, 14 days incubation
Experimental: The colony-forming cell assay was used as previously described [Motta M R et al., Exp Hematol 1997; 25:1261-1269]. In brief, for each molecule, 5×10^4 cells were plated in duplicate in a complete culture medium (MethoCult H4434, StemCell Technologies, Vancouver, Canada) containing different concentrations (0.2, 2, and 20 μmol/l) of the compound. After 14 days of incubation in a humidified atmosphere of 5% CO2 at the temperature of 37° C., granulocyte macrophage colony-forming unit (GM-CFU) aggregates of more than 50 cells were counted. Control cells were incubated under the same conditions but in drug-free medium.
The authors also evaluated the potential toxicity of some of the novel compounds in normal cells as the ability of the drugs to inhibit clonogenic growth of normal stem cells derived from human peripheral blood stem cells (FIG. 37). The exposure of hematopoietic precursor to the compounds, caused low ((S)-37) or negligible (, (R)-22, (R)-23, (R)-10) toxicity at the highest concentration tested.

HepG2 cells = experiment: Cytotoxic activity on hepatoblastoma cell line HepG2; type: cell-based, human; conditions: up to highest concentration tested
Experimental: as §3, §1, §2
(§5) The authors evaluated in vitro the potential hepato-toxicity of some of the novel compounds on HepG2 cell line, a human hepatoblastoma cell line that retains the specialized function of normal hepatocytes [Knowles B B, et al., Science 1980, 209:497-499; Aden D P, et al., Nature, 1979, 282:615-616].

[4] = as above; type: cell-based, human; conditions: human, HepG2 cells
Experimental: as §3, §1, §2, §5

Compound | GI50 (LNCaP cells [1]) | LC50 (LNCaP cells [1]) | cytocidal (cell killing) activity (LNCaP cells [1]) | cytotoxic properties compared to effects on LNCaP and LNCaP-AR cells (DU145) | cytotoxic properties compared to effects on LNCaP and LNCaP-AR cells (PC-3) | apoptosis induction in the LNCaP derivative cell line versus LNCaP (LNCaP-AR cells; 144 h) | Apoptotic cells (%) (LNCaP-AR cells) | Apoptotic cells (%) (LNCaP cells [2]) | toxicity: inhibition of clonogenic growth of hematopoietic precursors [3] | potential hepato-toxicity (HepG2 cells) | GI50 [4] | LC50 (concentration killing 50% of cells) [4]
CS(=O)(=O)N[C@@](Cc1ccccc1)(CS(=O)(=O)c1ccc(F)cc1)C(=O)Nc1ccc(C#N)c(C(F)(F)F)c1 [(R)-10, (R)-2-benzyl-N-(4-cyano-3-(trifluoromethyl)phenyl)-3-(4-fluorophenylsulfonyl)-2-(methylsulfonamido)propanamide] | 7.4 µM | 17.7 µM | cytocidal activity | significant reduction in their cytotoxic proprieties | significant reduction in their cytotoxic proprieties | more active | 42.7% | 35.5% | negligible | negligible toxicity |  | 
N#Cc1ccc(N2C(=O)[C@](Cc3ccc(F)cc3)(c3ccccc3)NC2=S)cc1C(F)(F)F [(S)-37] | 5.8 µM | 16.8 µM | cytocidal activity | significant reduction in their cytotoxic proprieties | significant reduction in their cytotoxic proprieties |  | 89.5% | 93.4% | low | significant toxicity | 7.4 µM | 17.7 µM
